What was measured:
ERβ = ERβ (Homo sapiens, UniProt Q92731); assay: Relative binding affinity (RBA) to estrogen receptor beta, radiometric measurement; conditions: for β/α Ratio: ratio of RBA ERβ to RBA ERα; for RBA ERβ: relative value to 100% for E2 by radiometric measurement
[1] = test system: primary oligodendrocyte and oligodendrocyte precursor cells (OL/OPCs); assay: Primary OPC culture differentiation (MBP immunostaining, DAPI); format: cell-based, mouse; design: key to %MBP+/DAPI: *: The level of production of myelin basic protein (MBP); ---: reduction of MBP; conditions: level of production of myelin basic protein in primary OPC/OL cultures
Method: Primary OPC Cultures: Primary OPCs, isolated from postnatal day P1 C57BL/6 male and female mouse cortices as described previously, were treated with 10 nM ligands in differentiating medium for 3 days (Tiwari-Woodruff et al., 2001; Tiwari-Woodruff et al., 2006). Primary OPC were cultured into 8-well chamber slides (three wells per condition, 2.5×10^5 cells/well) for three days to attach and […] in differentiating media (consisting of DMEM-F12 with triiodothyronine- and thyroxine-containing Sato as well as penicillin, streptomycin, insulin, N-acetyl-L-cysteine, forskolin, ciliary neurotrophic factor, neurotrophin-3, and platelet-derived growth factor receptor α (Tiwari-Woodruff et al., 2001)). A positive control (IndCl), a negative control (Vehicle consisting of the media+EtOH mixture used to dissolve IndCl), and a normal control (differentiating media alone) were used for comparison. At the end of the treatment period, cells were fixed, stained by immunocytochemistry (primary antibody polyclonal chicken myelin basic protein (MBP, Millipore AB9348), shown in green and co-stained with nuclear stain—DAPI shown in blue), and imaged with an Olympus BX61 confocal microscope (Olympus America Inc., Center Valley, Pa.) at 10× magnification (3 images per well). Cells were counted using the ImageJ multipoint tool, and counts were then divided by the image area (mm^2). Average cell density for each condition was then divided by the normal condition cell density. Analysis of OL differentiation consisted of counting the number of MBP+ cells and process extensions that were longer than the respective cell-body diameter and tracking the number of highly branched MBP+ cells (with three or more processes) (Monnerie et al., 2017). Statistics were performed using GraphPad Prism 6 Software (La Jolla, Calif.). One-way ANOVA with Tukey's posthoc test for multiple comparisons was used to generate p-values, and data are presented as mean SEM (with α≤0.05).
Primary OPC cultures were used as a convenient cell-based assay to characterize the proliferation and/or differentiation effects of the new IndCl analogues and to select those most suitable for more extensive studies to be done in comparison with the parental ligand, IndCl. 48 hours after plating OPCs, one of seven IndCl analogues (FIG. 1A) was added to differentiating media at a concentration of 10 nM (De Angelis et al., 2005; Saijo et al., 2011). OPCs were allowed to differentiate for 3 days in the presence of IndCl or analogues, at which point they were fixed, immunostained for OPC/OL markers, and quantified. […] The total number of cells in culture was not altered by any treatment (FIGS. 1B and 1D).

ERα = target: T1, ERα (Homo sapiens, UniProt P03372); assay: Relative binding affinity (RBA) to estrogen receptor alpha, radiometric measurement; conditions: relative value to 100% for E2 by radiometric measurement
T1 sequence (P03372 1-595): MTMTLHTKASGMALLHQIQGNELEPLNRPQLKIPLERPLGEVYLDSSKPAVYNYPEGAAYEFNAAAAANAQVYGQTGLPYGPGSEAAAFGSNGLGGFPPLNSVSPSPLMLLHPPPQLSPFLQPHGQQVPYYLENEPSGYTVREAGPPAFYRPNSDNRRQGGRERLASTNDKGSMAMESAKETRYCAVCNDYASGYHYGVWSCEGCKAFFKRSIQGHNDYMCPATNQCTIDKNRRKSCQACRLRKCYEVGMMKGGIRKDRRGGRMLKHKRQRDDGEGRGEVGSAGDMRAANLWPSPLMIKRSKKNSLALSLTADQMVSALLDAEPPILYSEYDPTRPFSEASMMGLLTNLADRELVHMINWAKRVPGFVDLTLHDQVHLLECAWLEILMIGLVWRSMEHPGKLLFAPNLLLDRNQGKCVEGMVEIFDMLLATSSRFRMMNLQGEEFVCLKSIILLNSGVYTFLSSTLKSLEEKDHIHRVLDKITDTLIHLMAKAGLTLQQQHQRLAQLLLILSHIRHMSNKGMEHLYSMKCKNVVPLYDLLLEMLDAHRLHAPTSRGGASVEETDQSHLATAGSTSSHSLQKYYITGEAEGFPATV

primary OPCs/OLs = assay: Primary OPC/OL differentiation and survival (O4, MOG, DAPI staining); format: cell-based, mouse; conditions: for number of MOG+ OLs: vs vehicle-treated cells, FIG. 12B
Source text: FIG. 12A is representative images of primary OPCs/OLs from wells containing differentiating media in the presence of different analogues. OLs were immunostained with an antigen on the surface of oligodendrocyte progenitors, O4, a marker of mature oligodendrocytes, myelin oligodendrocyte glycoprotein, MOG and co-stained with nuclear stain DAPI.
FIG. 12B and FIG. 12C show quantification of the effects of treatment on the number of MOG+ OLs and the number of total cells (DAPI), respectively. […] There were 3 wells/treatment group. n=3 independent experiments were performed. One-Way ANOVA with Dunnett's multiple comparisons test.
The effect on cell differentiation and survival of estrogen receptor § (ERP) ligand IndCl and analogs were investigated. Some estrogen receptor § (ERP) ligands increase primary mouse oligodendrocyte differentiation (FIGS. 12A-12C).

Sequence of ERβ (Q92731 whole entry, species assumed): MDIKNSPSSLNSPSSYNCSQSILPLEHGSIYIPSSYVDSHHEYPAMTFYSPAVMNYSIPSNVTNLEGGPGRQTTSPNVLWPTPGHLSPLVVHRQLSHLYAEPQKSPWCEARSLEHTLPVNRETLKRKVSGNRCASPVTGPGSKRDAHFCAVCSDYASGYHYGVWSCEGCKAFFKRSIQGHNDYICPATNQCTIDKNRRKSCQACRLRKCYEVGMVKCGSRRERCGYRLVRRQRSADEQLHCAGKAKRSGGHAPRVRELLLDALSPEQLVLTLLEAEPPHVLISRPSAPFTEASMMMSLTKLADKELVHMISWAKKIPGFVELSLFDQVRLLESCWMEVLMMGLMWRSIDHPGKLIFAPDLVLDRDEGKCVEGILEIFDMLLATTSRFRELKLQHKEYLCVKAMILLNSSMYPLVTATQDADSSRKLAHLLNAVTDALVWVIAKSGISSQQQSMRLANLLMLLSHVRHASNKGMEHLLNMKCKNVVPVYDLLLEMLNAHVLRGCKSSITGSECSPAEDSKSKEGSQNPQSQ

SMILES | β/α Ratio (ERβ) | RBA ERβ (ERβ) [%] | %MBP+/DAPI [1] | RBA ERα (ERα) [%] | number of total cells (DAPI) (primary OPCs/OLs; FIG. 12C) | number of MOG+ OLs (primary OPCs/OLs)
N#Cc1cc(O)ccc1-n1nc2ccc(O)cc2c1Cl [IndCl-o-CN, 2-(3-chloro-5-hydroxy-2H-indazol-2-yl)-5-hydroxybenzonitrile] | 15.7 | 0.77 | --- | 0.05 |  | 
Oc1ccc(-n2nc3ccc(O)cc3c2F)c(Br)c1 [IndF-o-Br, 2-(2-bromo-4-hydroxyphenyl)-3-fluoro-2H-indazol-5-ol] | 3.3 | 1.22 |  | 0.37 | significant increase | significant increase
Cc1cc(O)ccc1-n1nc2ccc(O)cc2c1Br [IndBr-o-Me, 3-bromo-2-(4-hydroxy-2-methylphenyl)-2H-indazol-5-ol] | 9.8 | 11.99 |  | 1.22 |  | significant increase
Cc1cc(O)ccc1-n1nc2ccc(O)cc2c1F [IndF-o-Me, 3-fluoro-2-(4-hydroxy-2-methylphenyl)-2H-indazol-5-ol] | 3.4 | 0.37 | * * * * * | 0.11 |  | significant increase

Source: patent publication US11673866B2, “Estrogen receptor beta ligands for the prevention and treatment of multiple sclerosis (MS) and other demyelinating, inflammatory and neurodegenerative diseases” (The Board of Trustees of the University of Illinois, priority 2018, dated 2023)
